Test [1] deals with T1, human NK2 receptor (Homo sapiens, UniProt P21452).
T1 construct: expressed in transfected cells; host or cells: COS cells
T1 sequence (P21452 1-398): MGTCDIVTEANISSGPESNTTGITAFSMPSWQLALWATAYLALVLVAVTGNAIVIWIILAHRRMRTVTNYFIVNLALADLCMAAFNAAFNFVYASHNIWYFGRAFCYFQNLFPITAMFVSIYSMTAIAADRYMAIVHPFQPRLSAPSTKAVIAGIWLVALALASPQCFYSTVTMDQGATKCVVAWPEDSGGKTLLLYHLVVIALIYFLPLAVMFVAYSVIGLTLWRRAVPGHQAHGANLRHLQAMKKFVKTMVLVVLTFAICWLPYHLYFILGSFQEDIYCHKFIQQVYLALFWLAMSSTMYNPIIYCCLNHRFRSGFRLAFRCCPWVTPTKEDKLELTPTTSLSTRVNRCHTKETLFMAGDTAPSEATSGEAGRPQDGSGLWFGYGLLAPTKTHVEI
Kind of test: Test for binding to human NK2 receptor. The method, then:
A solution of cryopreserved COS cells expressing human NK2 receptor was diluted with a buffer (50 mM tris-hydrochloride containing 0.04% of bovine serum albumin [BSA], pH 7.4) to obtain a concentration of 5.0×10^5 cells/mL and used as a crude membrane sample.
[^3H]SR 48968 (GE Healthcare Japan Corporation) was diluted with a mixture of 50 mM of tris-hydrochloride (pH 7.4), 6 mM of manganese chloride tetrahydrate, 800 μg/mL of BSA, 8 μg/mL of chymostatin, 8 μg/mL of leupeptin, 80 μg/mL of bacitracin, and 20 μg/mL of phosphoramidon. […] After the reaction, the membrane components were collected on a GF/B glass fiber filter paper (Whatman; Biomedical Research and Development Laboratories, Inc.) with an automated filtration system (Brandel; Biomedical Research and Development Laboratories, Inc.). The glass fiber filter paper was pretreated with a 0.1% polyethylenimine solution for 4 hours or longer to minimize non-specific binding. The filter collecting the membrane components was transferred to a small-size plastic vial containing 3 mL of Pico-Fluor, and the radioactivity was measured with a liquid scintillation counter (Tri-Carb 2900TR or 2300TR; Perkin Elmer).
The effect of binding to the NK2 receptor was calculated as the affinity (Ki) of the test substance for the NK2 receptor from a 50% binding dose (IC50) and the affinity (Kd) of [^3H]SR 48968 for the NK2 receptor.

For test [2], the target named is T2, substance P receptor (Cavia porcellus, UniProt P30547).
T2 construct: A preparation of a crude lung membrane sample was prepared; from tissue; host or cells: guinea-pig lung (crude membrane sample)
The test can be described thus: Test for binding to guinea-pig substance P receptor (crude lung membrane sample). Conditions: crude guinea-pig lung membrane sample, [3H]substance P; Ki from IC50 and Kd; read-out: Ki. On the procedure: A preparation of a crude lung membrane sample was prepared, and a test for binding of a test substance to the sample was performed according to the method described in EP0336230A2.
The binding effect of the test substance to a substance P receptor was calculated as an affinity (Ki) of the test substance for the substance P receptor from a 50% binding concentration (IC50) and an affinity (Kd) of [^3H]substance P for the substance P receptor.

Test [3] has as its system muscarine M3 receptor. The test can be described thus: Effect of suppressing methacholine-induced airway contraction (in vivo, intratracheal administration). Set-up: species or system guinea pig. Conditions: guinea pigs, intratracheal administration 60 minutes before 30 μg/kg i.v. methacholine; AUC of increase in airway pressure over 10 minutes. The method, then:
Using healthy guinea pigs (body weight, 350 to 550 g; Hartley male guinea pigs), the effect of suppressing airway contraction induced by methacholine, which is a muscarine receptor agonist, was examined by a modified method of Konzett-Roessler (Naunyn-Schmiedebergs Arch. Exp. Pathol. Pharmakol. 195, 71 [1940]) using airway pressure as an indicator.
A tracheal cannula and a venous cannula were attached to a guinea pig anesthetized with pentobarbital (50 mg/mL of solution, 0.40 to 0.50 mL/body, subcutaneous administration). An arterial cannula filled with heparin-containing physiological saline (100 U/mL) was further attached, and blood pressure and heart rate were monitored via an amplifier and an instantaneous heart rate meter. Subsequently, gallamine (20 mg/body, intravenous administration) was administered to terminate spontaneous breathing, and then 10 mL/kg of positive pressure breathing (Ugo-Basile Biological Research Apparatus, Cat. No. 7025) was rapidly performed at 60 times/min. The airway pressure during artificial breathing was detected with a pressure transducer (TP-200T or TP-400T; Nihon Kohden Corporation) attached to a side branch of the tracheal cannula, amplified (AP-601G; Nihon Kohden Corporation), and recorded in a recorder. After the airway pressure, blood pressure, and heart rate were stabilized, 30 μg/kg of methacholine was intravenously administered from the venous cannula to induce airway contraction, and the airway pressure was measured for the following 10 minutes.
A test substance was dissolved in 5% glucose solution, and a 0.5 mL/kg solution was administered intratracheally with an intratracheal administration apparatus (model 1A-1B; Penn-Century, Inc.) 60 minutes before stimulation with methacholine.
The AUC of increase in the airway pressure over 10 minutes after administration of methacholine was measured as the intensity of methacholine-induced airway contraction and calculated as an ID50 value from the inhibition rate based on the value of the control group (a 5% glucose solution intratracheal administration group).

The target of test [4] is T3, human M3 receptor (Homo sapiens, UniProt P20309).
T3 construct: expressed in transfected cells; host or cells: CHO cells
Kind of test: Test for binding to human M3 receptor. The method, then:
A solution of cryopreserved CHO cells expressing human M3 receptor was diluted with a buffer (50 mM tris-hydrochloride containing 0.5 mM of EDTA, pH 7.4) to obtain 5.0×10^5 of cells/mL and used as a crude membrane sample.
[N-methyl-^3H]-(−)-Scopolamine methyl chloride (GE Healthcare Japan Corporation) was diluted with 50 mM of tris-hydrochloride containing 0.5 mM of EDTA (pH 7.4), a test substance and 250 μL of the crude membrane sample solution were added to 250 μL of the mixture, and the mixture was incubated at room temperature for 60 minutes. […] The glass fiber filter paper was pretreated with a 0.1% polyethylenimine solution for 4 hours or longer to minimize non-specific binding. The filter collecting membrane components was transferred to a small-size plastic vial containing 3 mL of Pico-Fluor, and the radioactivity was measured with a liquid scintillation counter (Tri-Carb 2900TR or 2300TR; Perkin Elmer).
The effect of binding to the M3 receptor was calculated as the affinity (Ki) of the test substance for the M3 receptor from a 50% binding dose (IC50) and the affinity (Kd) of [N-methyl-^3H]-(−)-Scopolamine methyl chloride for the M3 receptor.

Where [5] appears, read: COS cells expressing human NK2 receptor, [3H]SR 48968 1 nM, Ki from IC50 and Kd, read-out: Ki.
The mark [6] stands for this setting: CHO cells expressing human M3 receptor, [N-methyl-3H]-(-)-Scopolamine methyl chloride 0.5 nM, Ki from IC50 and Kd, read-out: Ki.

The results in this text go back to patent US8476253B2, “Amide derivative” (Daiichi Sankyo Company, Limited, priority 2009, dated 2013).

The term Ki denotes the equilibrium dissociation constant of an inhibitor or competing ligand from its target.

Counter-ions that a name gives are not always drawn. Like-named read-outs stand apart in the source and are kept apart here.

T3 sequence (P20309 whole entry): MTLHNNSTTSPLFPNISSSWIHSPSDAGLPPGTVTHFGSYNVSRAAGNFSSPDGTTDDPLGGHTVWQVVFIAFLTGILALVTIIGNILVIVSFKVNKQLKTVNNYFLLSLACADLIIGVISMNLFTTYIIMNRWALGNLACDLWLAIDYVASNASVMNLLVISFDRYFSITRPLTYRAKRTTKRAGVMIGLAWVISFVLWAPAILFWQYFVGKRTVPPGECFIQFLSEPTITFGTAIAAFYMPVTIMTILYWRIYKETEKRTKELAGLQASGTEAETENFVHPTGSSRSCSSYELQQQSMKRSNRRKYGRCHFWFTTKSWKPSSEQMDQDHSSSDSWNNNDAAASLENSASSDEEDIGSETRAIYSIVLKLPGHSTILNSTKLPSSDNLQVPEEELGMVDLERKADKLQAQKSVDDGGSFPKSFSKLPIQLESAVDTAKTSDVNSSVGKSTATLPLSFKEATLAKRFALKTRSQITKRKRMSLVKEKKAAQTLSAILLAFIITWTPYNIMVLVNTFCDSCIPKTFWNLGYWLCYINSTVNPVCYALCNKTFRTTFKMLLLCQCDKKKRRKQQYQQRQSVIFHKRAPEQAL
T2 sequence (P30547 whole entry): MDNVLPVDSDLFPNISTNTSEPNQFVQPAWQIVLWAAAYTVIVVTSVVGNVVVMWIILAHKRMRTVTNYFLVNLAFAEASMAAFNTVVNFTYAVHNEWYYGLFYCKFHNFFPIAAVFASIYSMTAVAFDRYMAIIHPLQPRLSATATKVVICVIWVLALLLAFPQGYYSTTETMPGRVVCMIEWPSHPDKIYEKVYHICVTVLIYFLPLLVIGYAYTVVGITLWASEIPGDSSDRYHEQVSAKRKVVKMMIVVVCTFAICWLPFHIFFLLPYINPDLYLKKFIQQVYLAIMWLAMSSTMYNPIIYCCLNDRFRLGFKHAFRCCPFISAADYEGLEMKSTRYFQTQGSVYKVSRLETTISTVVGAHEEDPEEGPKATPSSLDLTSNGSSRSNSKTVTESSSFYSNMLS

As for `CN(CCN1CCC(OC(=O)Nc2ccccc2-c2ccccc2)CC1)C(=O)CCCCCNc1nc(CC(=O)N(C)CCCN(C)C(=O)CO[C@H]2Cc3ccccc3C23CCN(CC[C@@]2(c4ccc(F)cc4)CN(C(=O)c4cc(C(F)(F)F)cc(C(F)(F)F)c4)CO2)CC3)cs1` [Example 88, 1-{2-[{6-[(4-{2-[{3-[({[(2S)-1′-{2-[(5R)-3-[3,5-Bis(trifluoromethyl)benzoyl]-5-(4-fluorophenyl)-1,3-oxazolidin-5-yl]ethyl}-2,3-dihydrospiro[indene-1,4′-piperidin]-2-yl]oxy}acetyl)(methyl)amino]propyl}(methyl)amino]-2-oxoethyl}-1,3-thiazol-2-yl)amino]hexanoyl}(methyl)amino]ethyl}piperidin-4-yl biphenyl-2-ylcarbamate trihydrochloride], the Ki in test [1] worked out at 0.72 nM; in test [2], 1.1 nM; in test [4] it was 0.31 nM. Further, in test [3], the ID50 amounted to 6.0 µg/kg.
For the molecule `CN(CCN1CCC(OC(=O)Nc2ccccc2-c2ccccc2)CC1)C(=O)CCCCCNc1ccc(NC(=O)CCCN(C)C(=O)CO[C@H]2Cc3ccccc3C23CCN(CC[C@@]2(c4ccc(F)cc4)CN(C(=O)c4cc(C(F)(F)F)cc(C(F)(F)F)c4)CO2)CC3)cc1` [Example 82, 1-{2-[(6-{[4-({4-[({[(2S)-1′-{2-[(5R)-3-[3,5-Bis(trifluoromethyl)benzoyl]-5-(4-fluorophenyl)-1,3-oxazolidin-5-yl]ethyl}-2,3-dihydrospiro[indene-1,4′-piperidin]-2-yl]oxy}acetyl)(methyl)amino]butanoyl}amino)phenyl]amino}hexanoyl)(methyl)amino]ethyl}piperidin-4-yl biphenyl-2-ylcarbamate trihydrochloride], the Ki amounted to 0.6 nM in test [1], 4.5 nM in test [2] and 1.6 nM in test [4].
Turning to `CN(CCN1CCC(OC(=O)Nc2ccccc2-c2ccccc2)CC1)C(=O)CCCC1CCN(c2ccc(C(=O)N(C)CCCN(C)C(=O)CO[C@H]3Cc4ccccc4C34CCN(CC[C@@]3(c5ccc(F)cc5)CN(C(=O)c5cc(C(F)(F)F)cc(C(F)(F)F)c5)CO3)CC4)cc2)CC1` [Example 66, 1-(2-{[4-(1-{4-[{3-[({[(2S)-1′-{2-[(5R)-3-[3,5-Bis(trifluoromethyl)benzoyl]-5-(4-fluorophenyl)-1,3-oxazolidin-5-yl]ethyl}-2,3-dihydrospiro[indene-1,4′-piperidin]-2-yl]oxy}acetyl)(methyl)amino]propyl}methyl)carbamoyl]phenyl}piperidin-4-yl)butanoyl](methyl)amino}ethyl)piperidin-4-yl biphenyl-2-ylcarbamate trihydrochloride], the figures for the Ki in test [1] (setting [5]), in test [2] and in test [4] (setting [6]) were 0.86 nM, 2.1 nM and 1.5 nM, respectively.
With `CN(CCN1CCC(OC(=O)Nc2ccccc2-c2ccccc2)CC1)C(=O)CCCCCNc1ccc(C(=O)N(C)CCCN(C)C(=O)CO[C@H]2Cc3ccccc3C23CCN(CC[C@@]2(c4ccc(F)cc4)CN(C(=O)c4cc(C(F)(F)F)cc(C(F)(F)F)c4)CO2)CC3)cc1F` [Example 13, 1-(2-{[6-({4-[{3-[({[(2S)-1′-{2-[(5R)-3-[3,5-Bis(trifluoromethyl)benzoyl]-5-(4-fluorophenyl)-1,3-oxazolidin-5-yl]ethyl}-2,3-dihydrospiro[indene-1,4′-piperidin]-2-yl]oxy}acetyl)(methyl)amino]propyl}(methyl)carbamoyl]-2-fluorophenyl}amino)hexanoyl](methyl)amino}ethyl)piperidin-4-yl biphenyl-2-ylcarbamate trihydrochloride], the Ki is 0.65 nM in test [1], 2.6 nM in test [2] and 1.2 nM in test [4].
On to `CN(CCN1CCC(OC(=O)Nc2ccccc2-c2ccccc2)CC1)C(=O)CCCCCCNc1ccc(C(=O)N(C)CCCN(C)C(=O)CO[C@H]2Cc3ccccc3C23CCN(CC[C@@]2(c4ccc(F)cc4)CN(C(=O)c4cc(C(F)(F)F)cc(C(F)(F)F)c4)CO2)CC3)cc1.Cl.Cl.Cl` [Example 39, 1-(2-{[7-({4-[{3-[({[(2S)-1′-{2-[(5R)-3-[3,5-Bis(trifluoromethyl)benzoyl]-5-(4-fluorophenyl)-1,3-oxazolidin-5-yl]ethyl}-2,3-dihydrospiro[indene-1,4′-piperidin]-2-yl]oxy}acetyl)(methyl)amino]propyl}methyl)carbamoyl]phenyl}amino)heptanoyl](methyl)amino}ethyl)piperidin-4-yl biphenyl-2-ylcarbamate trihydrochloride], for which the Ki in test [1] (setting [5]) was found to be 0.82 nM; in test [2] it was 1.2 nM; in test [4] (setting [6]), 1.4 nM.
For `CN(CCCCCC(=O)N(C)CCN1CCC(OC(=O)Nc2ccccc2-c2ccccc2)CC1)Cc1cccc(C(=O)N(C)CCCN(C)C(=O)CO[C@H]2Cc3ccccc3C23CCN(CC[C@@]2(c4ccc(F)cc4)CN(C(=O)c4cc(C(F)(F)F)cc(C(F)(F)F)c4)CO2)CC3)c1` [Example 41, 1-{2-[{6-[{3-[{3-[({[(2S)-1′-{2-[(5R)-3-[3,5-Bis(trifluoromethyl)benzoyl]-5-(4-fluorophenyl)-1,3-oxazolidin-5-yl]ethyl}-2,3-dihydrospiro[indene-1,4′-piperidin]-2-yl]oxy}acetyl)(methyl)amino]propyl}(methyl)carbamoyl]benzyl}(methyl)amino]hexanoyl}(methyl)amino]ethyl}piperidin-4-yl biphenyl-2-ylcarbamate trihydrochloride], the figures for the Ki in test [1], in test [2] and in test [4] were 0.26 nM, 0.96 nM and 1.4 nM, respectively.
